Counter-ions that a name gives are not always drawn.
Molecular target: T1, LRRK2 Ser935 phosphorylation in SH-SY5Y cells over-expressing recombinant full length LRRK2 (Homo sapiens, UniProt Q5S007)
T1 construct: A BacMam virus expressing full length recombinant LRRK2 was purchased from Invitrogen; host or cells: SH-SY5Y human neuroblastoma cells transduced with BacMam LRRK2 virus
Test: Recombinant cellular LRRK2 AlphaScreen assay
Type: cell-based
Conditions: human neuroblastoma SH-SY5Y cells, BacMam full length LRRK2, 60 minutes with compound, read-out: pIC50 in the recombinant cellular LRRK2 AlphaScreen assay (converted)
Source text: b. Recombinant Cellular LRRK2 AlphaScreen Assay
To determine the activity of compounds against LRRK2 kinase activity in cells, the observed LRRK2 kinase-dependent modulation of LRRK2 Ser 935 phosphorylation (Dzamko et al., 2010, Biochem. J. 430: 405-413) was utilized to develop a quantitative 384 well plate-based immunoassay of LRRK2 Ser935 phosphorylation in the human neuroblastoma cell line SH-SY5Y, engineered to over-express recombinant full length LRRK2 protein.
A BacMam virus expressing full length recombinant LRRK2 was purchased from Invitrogen and amplified by inoculation of SF-9 cells at MOI 0.3 for 4-5 days in Sf-900 III SFM medium supplemented with 3% fetal bovine serum. Infected cell cultures were then centrifuged at 2000 g for 20 minutes, viral supernatant titer determined by anti-gp64 plaque assay and stored at 4° C.
Affinity-purified anti-phospho LRRK2 Ser935 sheep polyclonal antibody (Dzamko et al., 2010, Biochem. J. 430: 405-413) was biotinylated by standard methods (PerkinElmer). Anti-LRRK2 rabbit polyclonal antibody was purchased from Novus Biologicals. AlphaScreen Protein A IgG Kit (including acceptor and donor beads) was purchased from Perkin Elmer.
SH-SY5Y cells were grown in DMEM/F12 medium with 10% dialysed fetal bovine serum and harvested by treatment with 0.5% trypsin-EDTA for 5 minutes at 37° C. followed by centrifugation at 1000 rpm for 4 minutes. The cell pellet was resuspended in Opti-MEM reduced serum media (Invitrogen) at 200,000 cells/ml and mixed with the BacMam LRRK2 virus at MOI=50. 50 μl cell solutions were then dispensed to each well of a 384-well plate and incubated at 37° C., 5% CO2 for 24 hours.
Serial dilutions of test compounds were prepared in Opti-MEM reduced serum media (Invitrogen) and 5.6 ul transferred from compound plate to cell assay plate to achieve a top final assay concentration of 10 uM. DMSO was used in certain wells as controls. Cells were incubated at 37° C., 5% CO2 for 60 minutes. The medium was then removed and cells lysed by addition of 20 ul cell lysis buffer (Cell Signaling Technology) and incubation at 4° C. for 20 minutes. 10 ul of antibody/acceptor bead mix [(1/1000 biotinylated-pS935 LRRK2 antibody, 1/1000 total-LRRK2 antibody, 1/100 Acceptor beads in AlphaScreen detection buffer (25 mM Hepes (pH 7.4), 0.5% Triton X-100, 1 mg/ml Dextran 500 and 0.1% BSA)] was then added to each well and plates incubated for 2 hours at ambient temperature in the dark. 10 μl of donor beads solution (1/33.3 donor beads in AlphaScreen detection buffer) was then added to each well. Following incubation for a further 2 hours at ambient temperature in the dark, plates were read on an EnVision™ plate reader at emission 520-620 nm with excitation 680 nm. Dose response curve data was based on sigmoidal dose-response model.

T1 sequence (Q5S007 whole entry): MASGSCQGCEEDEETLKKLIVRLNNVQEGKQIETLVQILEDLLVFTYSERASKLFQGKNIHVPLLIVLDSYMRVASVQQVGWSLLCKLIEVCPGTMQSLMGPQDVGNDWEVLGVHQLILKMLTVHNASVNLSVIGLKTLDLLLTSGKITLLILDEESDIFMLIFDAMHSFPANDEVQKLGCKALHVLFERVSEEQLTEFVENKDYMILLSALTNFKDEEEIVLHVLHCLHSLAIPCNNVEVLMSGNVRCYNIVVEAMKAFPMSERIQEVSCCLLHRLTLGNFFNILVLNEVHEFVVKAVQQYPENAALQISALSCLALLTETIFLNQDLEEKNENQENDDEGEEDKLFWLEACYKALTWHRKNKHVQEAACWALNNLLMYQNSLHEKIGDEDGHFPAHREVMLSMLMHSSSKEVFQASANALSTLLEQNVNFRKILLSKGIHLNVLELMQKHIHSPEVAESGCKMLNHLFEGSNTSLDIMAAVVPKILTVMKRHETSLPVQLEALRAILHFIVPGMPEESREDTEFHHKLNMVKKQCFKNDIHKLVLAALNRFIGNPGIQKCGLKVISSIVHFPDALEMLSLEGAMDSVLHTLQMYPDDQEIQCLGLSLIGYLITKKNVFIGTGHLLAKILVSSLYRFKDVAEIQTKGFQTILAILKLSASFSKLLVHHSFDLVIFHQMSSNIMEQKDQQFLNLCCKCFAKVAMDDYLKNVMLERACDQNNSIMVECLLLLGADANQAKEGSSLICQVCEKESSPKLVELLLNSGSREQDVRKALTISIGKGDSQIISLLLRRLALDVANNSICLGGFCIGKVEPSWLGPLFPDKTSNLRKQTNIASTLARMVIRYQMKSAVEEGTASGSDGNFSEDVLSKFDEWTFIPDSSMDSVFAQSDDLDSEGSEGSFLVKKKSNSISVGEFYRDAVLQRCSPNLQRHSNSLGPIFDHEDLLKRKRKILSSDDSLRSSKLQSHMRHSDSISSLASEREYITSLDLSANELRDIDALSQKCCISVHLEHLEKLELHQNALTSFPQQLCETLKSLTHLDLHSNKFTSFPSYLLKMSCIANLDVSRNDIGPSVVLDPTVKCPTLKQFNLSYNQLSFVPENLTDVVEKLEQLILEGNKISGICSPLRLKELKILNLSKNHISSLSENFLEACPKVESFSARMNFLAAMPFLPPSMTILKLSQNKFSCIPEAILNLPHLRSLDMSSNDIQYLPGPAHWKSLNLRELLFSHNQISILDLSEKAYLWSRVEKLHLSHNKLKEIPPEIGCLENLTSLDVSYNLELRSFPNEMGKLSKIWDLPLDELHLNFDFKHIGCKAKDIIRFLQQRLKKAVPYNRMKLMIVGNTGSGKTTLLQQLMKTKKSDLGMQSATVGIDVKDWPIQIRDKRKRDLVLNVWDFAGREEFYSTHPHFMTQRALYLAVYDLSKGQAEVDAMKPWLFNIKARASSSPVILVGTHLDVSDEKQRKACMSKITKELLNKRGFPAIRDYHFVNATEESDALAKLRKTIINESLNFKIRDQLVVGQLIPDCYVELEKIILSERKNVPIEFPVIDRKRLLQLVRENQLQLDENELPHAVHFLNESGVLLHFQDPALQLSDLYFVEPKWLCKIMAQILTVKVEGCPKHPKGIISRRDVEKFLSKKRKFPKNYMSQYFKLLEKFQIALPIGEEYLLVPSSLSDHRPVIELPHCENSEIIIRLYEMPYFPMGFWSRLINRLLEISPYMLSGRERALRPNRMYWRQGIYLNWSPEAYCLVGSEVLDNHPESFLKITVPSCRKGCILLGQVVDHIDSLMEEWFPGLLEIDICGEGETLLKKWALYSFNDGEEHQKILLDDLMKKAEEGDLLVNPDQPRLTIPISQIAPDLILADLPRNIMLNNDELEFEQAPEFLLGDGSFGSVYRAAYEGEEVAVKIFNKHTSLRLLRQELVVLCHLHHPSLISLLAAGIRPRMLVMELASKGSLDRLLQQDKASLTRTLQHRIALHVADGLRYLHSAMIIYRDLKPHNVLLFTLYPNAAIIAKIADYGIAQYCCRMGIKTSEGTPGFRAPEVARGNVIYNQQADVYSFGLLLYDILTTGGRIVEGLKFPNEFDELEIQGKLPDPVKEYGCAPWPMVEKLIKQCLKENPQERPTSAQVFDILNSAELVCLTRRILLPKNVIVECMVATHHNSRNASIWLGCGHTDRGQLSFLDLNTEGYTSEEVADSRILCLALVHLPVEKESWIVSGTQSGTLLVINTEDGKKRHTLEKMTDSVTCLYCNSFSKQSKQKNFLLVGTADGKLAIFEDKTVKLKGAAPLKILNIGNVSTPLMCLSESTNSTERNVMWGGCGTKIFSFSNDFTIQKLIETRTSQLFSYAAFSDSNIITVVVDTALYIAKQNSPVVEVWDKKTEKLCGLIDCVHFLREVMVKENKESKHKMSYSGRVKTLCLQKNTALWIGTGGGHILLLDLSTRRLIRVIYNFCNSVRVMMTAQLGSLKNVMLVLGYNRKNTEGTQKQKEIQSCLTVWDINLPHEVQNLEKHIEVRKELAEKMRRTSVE

| IC50 | SMILES |
| --- | --- |
| ≤ 1 µM | Cc1nc(N2CC3CC2CO3)cc(-n2ncc3cc(C)c([C@H]4CC[C@@](C)(O)CC4)cc32)n1 (single isomer, unassigned) [Example E9] |
| ≤ 1 µM | Cc1nc(N2CC3CC2CO3)cc(-n2ncc3cc(C)c([C@H]4CC[C@](C)(O)CC4)cc32)n1 (single isomer, unassigned) [Example E10] |
| ≤ 0.01 µM | COc1nc(N2C[C@H]3C[C@@H]2CO3)cc(-n2ncc3cc(C)c(C4CCN(CCO)CC4F)cc32)n1 (single isomer, unassigned) [Example E17] |
| ≤ 0.01 µM | COc1nc(N2CC3CC2CO3)cc(-n2ncc3cc(C)c(C4CCN(CCO)CC4F)cc32)n1 (single isomer, unassigned) [Example E18] |
| ≤ 1 µM | COc1nc(N2C[C@@H]3C[C@H]2CO3)cc(-n2ncc3cc(C)c(C4CCN(CCO)CC4F)cc32)n1 (single isomer, unassigned) [Example E19] |
| ≤ 1 µM | Cc1nc(N2C[C@@H]3C[C@H]2CO3)cc(-n2ncc3cc(C)c(C4CCN(CCO)CC4F)cc32)n1 (single isomer, unassigned) [Example E21] |
| ≤ 1 µM | Cc1nc(N2CC3CC2CO3)cc(-n2ncc3cc(C)c(C4CCN(CCO)CC4F)cc32)n1 (single isomer, unassigned) [Example E23] |
| ≤ 1 µM | Cc1nc(N2C[C@H]3C[C@@H]2CO3)cc(-n2ncc3cc(Cl)c(N4CCC(C)(O)C4)cc32)n1 (single isomer, unassigned) [Example E49] |
| ≤ 1 µM | Cc1nc(N2CC3CC2CC3C(=O)O)cc(-n2ncc3cc(C)c(C4CCOCC4)cc32)n1 (single isomer, unassigned) [Example E82, 2-{2-Methyl-6-[5-methyl-6-(tetrahydro-pyran-4-yl)-indazol-1-yl]-pyrimidin-4-yl}-2-aza-bicyclo[2.2.1]heptane-5-carboxylic Acid] |
| ≤ 1 µM | COc1nc(N2CC3CC2CO3)cc(-n2ncc3cc(C)c(C4CCN(C5COC5)CC4O)cc32)n1 (single isomer, unassigned) [Example E132] |
| ≤ 1 µM | COc1nc(N2CC3CC2CO3)cc(-n2ncc3cc(C)c(C4CCN(C5CCOC5)CC4O)cc32)n1 (single isomer, unassigned) [Example E135] |
| ≤ 1 µM | Cc1nc(N2CC3CC2CO3)cc(-n2ncc3cc(C)c(C4CCN([C@H]5CCOC5)CC4O)cc32)n1 (single isomer, unassigned) [Example E137] |
| ≤ 1 µM | Cc1nc(N2CC3CC2CO3)cc(-n2ncc3cc(C)c(C4CCN(C5COC5)CC4O)cc32)n1 (single isomer, unassigned) [Example E141] |
| ≤ 1 µM | Cc1nc(N2C[C@H]3C[C@@H]2CO3)cc(-n2ncc3cc(C)c(C4CCN(C5COC5)CC4(C)O)cc32)n1 (single isomer, unassigned) [Example E147] |
| ≤ 1 µM | Cc1nc(N2C[C@H]3C[C@@H]2CO3)cc(-n2ncc3cc(C)c(C4CCN(C5CCOC5)CC4F)cc32)n1 (single isomer, unassigned) [Example E149] |
| ≤ 1 µM | Cc1nc(N2C[C@@H]3C[C@H]2CO3)cc(-n2ncc3cc(C)c(C4CCN(C5CCOC5)CC4F)cc32)n1 (single isomer, unassigned) [Example E151] |
| ≤ 1 µM | Cc1nc(N2C[C@H]3C[C@@H]2CO3)cc(-n2ncc3cc(C)c(C4CCN(CCC(=O)O)CC4F)cc32)n1 (single isomer, unassigned) [Example E155] |

More lines, now with the values behind:

| SMILES | IC50 |
| --- | --- |
| COc1nc(N2CC3CC2CO3)cc(-n2ncc3cc(C)c([C@H]4CC[C@@](C)(O)CC4)cc32)n1 (single isomer, unassigned) [Example E11] | ≤ 0.01 µM |
| COc1nc(N2CC3CC2CO3)cc(-n2ncc3cc(C)c([C@H]4CC[C@](C)(O)CC4)cc32)n1 (single isomer, unassigned) [Example E12] | ≤ 1 µM |
| COc1nc(N2C[C@H]3C[C@@H]2CO3)cc(-n2ncc3cc(C)c(C4CCN(C5CCOC5)CC4)cc32)n1 (single isomer, unassigned) [Example E13] | ≤ 1 µM |
| COc1nc(N2C[C@@H]3C[C@H]2CO3)cc(-n2ncc3cc(C)c(C4CCN(C5CCOC5)CC4)cc32)n1 (single isomer, unassigned) [Example E15] | ≤ 1 µM |
| Cc1nc(N2C[C@@H]3C[C@H]2CO3)cc(-n2ncc3cc(Cl)c(N4CCC(C)(O)C4)cc32)n1 (single isomer, unassigned) [Example E47] | ≤ 1 µM |
| COc1nc(N2CC3CCC2CO3)cc(-n2ncc3cc(C)c(C4CCN(C5CCOC5)CC4)cc32)n1 (single isomer, unassigned) [Example E64, 5-(2-methoxy-6-(5-methyl-6-(1-(tetrahydrofuran-3-yl)piperidin-4-yl)-1H-indazol-1-yl)pyrimidin-4-yl)-2-oxa-5-azabicyclo[2.2.2]octane] | ≤ 1 µM |
| COc1nc(N2C[C@H]3C[C@@H]2CO3)cc(-n2ncc3cc(Cl)c(C4CCN(C5CCOC5)CC4)cc32)n1 (single isomer, unassigned) [Example E67] | ≤ 1 µM |
| COc1nc(N2C[C@@H]3C[C@H]2CO3)cc(-n2ncc3cc(Cl)c(C4CCN(C5CCOC5)CC4)cc32)n1 (single isomer, unassigned) [Example E69] | ≤ 1 µM |
| COc1nc(N2C[C@H]3C[C@@H]2CO3)cc(-n2ncc3cc(C)c(C4CCC(N5CCOCC5)CC4)cc32)n1 (single isomer, unassigned) [Example E71] | ≤ 1 µM |
| Cc1nc(N2CC3CC2CC3C(=O)O)cc(-n2ncc3cc(C)c(C4CCC(C)(O)CC4)cc32)n1 (single isomer, unassigned) [Example E75, 2-(6-(6-(cis-4-hydroxy-4-methylcyclohexyl)-5-methyl-1H-indazol-1-yl)-2-methylpyrimidin-4-yl)-2-azabicyclo[2.2.1]heptane-5-carboxylic Acid] | ≤ 0.01 µM |
| Cc1nc(N2CC3CC2CC3C(=O)O)cc(-n2ncc3cc(C)c(C4CCC(C)(O)CC4)cc32)n1 (single isomer, unassigned) [Example E76, 2-(6-(6-(cis-4-hydroxy-4-methylcyclohexyl)-5-methyl-1H-indazol-1-yl)-2-methylpyrimidin-4-yl)-2-azabicyclo[2.2.1]heptane-5-carboxylic Acid, TFA Salt] | ≤ 0.01 µM |
| Cc1nc(N2CC3CC(C2)C3C(=O)O)cc(-n2ncc3cc(C)c([C@H]4CC[C@@](C)(O)CC4)cc32)n1 (single isomer, unassigned) [Example E77, Cis-3-{6-[6-(4-Hydroxy-4-methyl-cyclohexyl)-5-methyl-indazol-1-yl]-2-methyl-pyrimidin-4-yl}-3-aza-bicyclo[3.1.1]heptane-6-carboxylic Acid] | ≤ 1 µM |
| Cc1nc(N2CC3CC(C2)C3C(=O)O)cc(-n2ncc3cc(C)c(C4CCC(C)(O)CC4)cc32)n1 (single isomer, unassigned) [Example E78, Cis-3-{6-[6-(4-Hydroxy-4-methyl-cyclohexyl)-5-methyl-indazol-1-yl]-2-methyl-pyrimidin-4-yl}-3-aza-bicyclo[3.1.1]heptane-6-carboxylic Acid] | ≤ 0.01 µM |
| COc1nc(N2CC3CC2CC3C(=O)O)cc(-n2ncc3cc(Cl)c(O[C@H]4CCOC4)cc32)n1 (single isomer, unassigned) [Example E84] | ≤ 1 µM |
| COc1nc(N2CC3CC2CC3C(=O)O)cc(-n2ncc3cc(Cl)c(O[C@@H]4CCOC4)cc32)n1 (single isomer, unassigned) [Example E85] | ≤ 1 µM |
| Cc1nc(N2CC3(CO)CC2CO3)cc(-n2ncc3cc(C)c(C4CCN(C5CCOC5)CC4)cc32)n1 (single isomer, unassigned) [Example E153, (5-(2-methyl-6-(5-methyl-6-(1-(tetrahydrofuran-3-yl)piperidin-4-yl)-1H-indazol-1-yl)pyrimidin-4-yl)-2-oxa-5-azabicyclo[2.2.1]heptan-1-yl)methanol] | ≤ 1 µM |
